# According to patent publication US10093642B2, “Multitarget hedgehog pathway inhibitors and uses thereof” (UNIVERSITA' DEGLI STUDI DI SIENA, priority 2013, dated 2018):
# How the values were obtained:
# [1] = system: Ptch1+/− MB allografts; assay: Ptch1+/− MB allograft in nude mice; format: in vivo, BALB/c nude mice; settings: 18 days
# From the text: FIG. 17. Glabrescione B inhibits Gli1-dependent MB tumor growth in vivo (Ptch1^+/− MB allografts). (A) Change of tumor volume during Glabrescione B (GlaB) or vehicle (CTR) treatment period (days 18). […] (C) qRT-PCR of Gli1 and Ptch1 mRNA expression levels normalized with endogenous control β2-microglobulin and HPRT.
# Therefore, to verify the Glabrescione B efficacy to inhibit Hh-dependent tumor cell growth in vivo, we turned to an allograft model of MB cells. Spontaneous Medulloblastomas from Ptch1^+/− mice were isolated, minced, pipetted to obtain a single-cell suspension and grafted s.c. at the posterior flank of female BALB/c nude mice (nu/nu) (Charles River Laboratories, Lecco, Italy). Tumors were grown until a median size of ˜100 mm^3. Animals were randomly divided into two groups (n=6) and treated with solvent only (2-hydroxypropyl-β-cyclodextrin:ethanol, 3:1) or Glabrescione B in solvent (75 μmol/Kg) for 18 days (2-hydroxypropyl-β-cyclodextrin was purchased from Sigma Aldrich, St. Louis, Mo., USA). 2×10^6 ASZ001 BCC cells were resuspended in an equal volume of 154CF medium and Matrigel (BD Biosciences, Heidelberg, Germany) and injected s.c. at the posterior flank of female NOD/SCID mice (Charles River Laboratories, Lecco, Italy), as previously described (Eberl et al, 2012). Tumors were grown until a median size of ˜200 mm^3. Animals were randomly divided into two groups (n=6) and treated with solvent only (2-hydroxypropyl-β-cyclodextrin:ethanol, 3:1) or Glabrescione B in solvent (100 μmol/Kg) for 18 days. Tumor volumes change was calculated by the formula length×width×0.5×(length+width) (Lauth et al, 2007).
# Nude mice were grafted with spontaneous primary MB from Ptch1^+/− mice and treated every second day with s.c. injections of Glabrescione B at a concentration of 75 μmol/Kg or solvent only (n=6 for each group).
# [2] = target: GST (Schistosoma japonicum, UniProt P08515); assay: NMR relaxation speed of Glabrescione B protons in presence of GST alone; format: binding; settings: 0.412 mM
# Chain of GST (P08515 whole entry): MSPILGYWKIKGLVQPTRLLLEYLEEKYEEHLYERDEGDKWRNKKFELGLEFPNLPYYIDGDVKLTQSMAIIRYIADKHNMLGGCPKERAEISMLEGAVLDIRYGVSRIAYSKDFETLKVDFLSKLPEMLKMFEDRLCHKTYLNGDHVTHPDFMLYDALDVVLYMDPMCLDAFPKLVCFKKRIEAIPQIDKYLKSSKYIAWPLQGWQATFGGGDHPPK
# [3] = target: T1, Gli1 (Homo sapiens, UniProt P08151); assay: Gli1-mediated transcription luciferase assay in HEK293 cells transiently expressing Gli1; format: cell-based; settings: 24 h
# T1 construct: expressed in transfected cells; host or cells: HEK293
# T1 sequence (P08151 1-1106): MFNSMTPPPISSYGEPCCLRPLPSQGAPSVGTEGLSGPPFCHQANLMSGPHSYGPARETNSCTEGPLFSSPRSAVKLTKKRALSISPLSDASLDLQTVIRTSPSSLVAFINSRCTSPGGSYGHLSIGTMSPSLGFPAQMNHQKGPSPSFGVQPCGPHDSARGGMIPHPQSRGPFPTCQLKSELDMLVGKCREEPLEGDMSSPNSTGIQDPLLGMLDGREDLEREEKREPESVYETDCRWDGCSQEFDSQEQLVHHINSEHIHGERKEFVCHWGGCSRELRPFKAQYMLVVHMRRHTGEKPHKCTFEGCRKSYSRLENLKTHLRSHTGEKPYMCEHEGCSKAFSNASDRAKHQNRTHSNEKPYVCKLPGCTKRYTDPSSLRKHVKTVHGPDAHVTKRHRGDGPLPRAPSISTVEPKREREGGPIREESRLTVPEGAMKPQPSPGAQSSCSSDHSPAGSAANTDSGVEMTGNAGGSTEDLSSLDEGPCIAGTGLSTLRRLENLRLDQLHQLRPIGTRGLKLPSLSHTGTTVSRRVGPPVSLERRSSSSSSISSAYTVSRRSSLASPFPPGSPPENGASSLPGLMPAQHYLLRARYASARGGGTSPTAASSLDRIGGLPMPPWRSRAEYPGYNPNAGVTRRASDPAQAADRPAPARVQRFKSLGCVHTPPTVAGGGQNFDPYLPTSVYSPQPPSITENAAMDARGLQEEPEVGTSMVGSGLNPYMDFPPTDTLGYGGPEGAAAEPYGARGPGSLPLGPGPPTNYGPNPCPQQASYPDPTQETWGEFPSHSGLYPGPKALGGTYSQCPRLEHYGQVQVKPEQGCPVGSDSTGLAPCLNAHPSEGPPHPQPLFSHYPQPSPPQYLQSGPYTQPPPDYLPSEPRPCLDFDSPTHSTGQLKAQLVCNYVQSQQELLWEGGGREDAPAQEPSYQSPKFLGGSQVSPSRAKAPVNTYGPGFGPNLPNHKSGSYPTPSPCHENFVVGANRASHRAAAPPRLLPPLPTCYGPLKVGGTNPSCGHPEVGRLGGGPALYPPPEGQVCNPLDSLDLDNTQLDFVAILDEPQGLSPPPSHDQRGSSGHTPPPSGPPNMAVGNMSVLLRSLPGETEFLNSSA
# Method: FIG. 7. Inhibition of Gli1-induced transcription in transfected HEK293 cells. HEK293 cells were transfected with 12×GliBS-Luc and pRL-TK Renilla (normalization control) plus control (empty vector) or Gli1 vector and treated with Glabrescione B or GANT61 (20 μM) or vehicle only (DMSO, dimethyl sulfoxide 0.5%—Gli1 bar in the graph) for 24 h and luciferase activity tested. Shown is the mean of three independent experiments. Error bars indicate SD.
# Efficacy of Glabrescione B to directly target Gli1 protein, the final effector of Hh pathway, was also tested. […] GANT61, the only small-molecule described to inhibit Gli1 function (Lauth et al., PNAS 104: 8455-8460), was included as positive control.
# To investigate the ability of Glabrescione B to block downstream Hh signaling by targeting Gli1 protein functions, the inventors performed a luciferase assay in HEK293 cells transiently expressing Gli1. The cells were seeded in 24-multiwell plates and the day after transfected with Gli1 expression vector together with the reporter plasmids 12×GliBS-Luc and pRL-TK Renilla reniformis (Kogerman P et al, 1999; Everett L et al, 1999). […] After 24 h of treatment cells were lysed and analyzed by using the Dual Luciferase kit according to manufacturer's instructions (Dual-Luciferase® Reporter assay system; Promega, cat. # E1980). […]
# [4] = system: HepG2 hepatocellular carcinoma cells; assay: Effect on Hh-independent HepG2 cells; format: cell-based
structure (smiles),measurement,setting,value
"COc1cc(OC)c2c(=O)c(-c3ccc(OCC=C(C)C)c(OCC=C(C)C)c3)coc2c1 [Glabrescione B, 3-(3′,4′-bis(3-methylbut-2-enyloxy)phenyl)-5,7-dimethoxy-4H-chromen-4-one]",tumor mass,[1]; 75 μmol/Kg s.c. every second day,significantly suppressed tumor mass
same,Gli1 mRNA levels in tumors,[1]; 75 μmol/Kg s.c.,reduction of Gli1 mRNA levels
same,Ki67 staining in tumors,[1]; 75 μmol/Kg s.c.,decreased Ki67 staining
same,"Normalized relaxation speed ΔR/Rf, GlaB:GST 1:150",[2]; proton 1,0.024
same,"Normalized relaxation speed ΔR/Rf, GlaB:GST 1:150",[2]; proton 2′,0.058
same,"Normalized relaxation speed ΔR/Rf, GlaB:GST 1:150",[2]; proton 3,0.100
same,"Normalized relaxation speed ΔR/Rf, GlaB:GST 1:150",[2]; proton 4′,0
same,"Normalized relaxation speed ΔR/Rf, GlaB:GST 1:150",[2]; proton 8,0
same,"Normalized relaxation speed ΔR/Rf, GlaB:GST 1:150",[2]; proton 12,0.034
same,"Normalized relaxation speed ΔR/Rf, GlaB:GST 1:150",[2]; proton 15,0.138
same,"Normalized relaxation speed ΔR/Rf, GlaB:GST 1:150",[2]; proton 19,0
same,IC50,[3]; 12×GliBS-Luc reporter,~15 µM
same,Gli1-induced transcription,[3]; GANT61 20 μM as positive control,capable of interfering with Gli1-induced transcription in a dose-dependent manner
same,effect on HepG2 cells,[4],no effect
